Source: ChEMBL document CHEMBL1909046, “DrugMatrix in vitro pharmacology data”

Key:
Caspase-1 = biological target: T1, Caspase-1 (Homo sapiens, UniProt P29466); parameters: species or system Escherichia coli;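 note: Caspase-1 enzyme inhibition assay with a peptide substrate; in other assays of this panel Not Active means under 50% inhibition at 10 µM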
T1 sequence (P29466 whole entry): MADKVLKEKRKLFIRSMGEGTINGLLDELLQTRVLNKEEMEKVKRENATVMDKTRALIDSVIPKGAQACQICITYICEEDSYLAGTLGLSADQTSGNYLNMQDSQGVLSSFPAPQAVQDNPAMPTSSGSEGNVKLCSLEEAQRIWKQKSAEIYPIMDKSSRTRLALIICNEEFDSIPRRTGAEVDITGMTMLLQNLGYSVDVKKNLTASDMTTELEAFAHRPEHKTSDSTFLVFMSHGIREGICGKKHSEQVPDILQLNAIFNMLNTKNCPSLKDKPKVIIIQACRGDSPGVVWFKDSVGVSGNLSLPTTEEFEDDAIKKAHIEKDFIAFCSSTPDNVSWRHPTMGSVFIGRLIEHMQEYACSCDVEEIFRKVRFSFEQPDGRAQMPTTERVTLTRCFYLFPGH

[1] = biological target: C-C chemokine receptor type 2 (Homo sapiens, UniProt P41597); type: cell membranes, CHO-K1, Membrane; note: in other assays of this panel Not Active means under 50% inhibition at 10 µM
Progesterone receptor = biological target: T2, Progesterone receptor (Bos taurus, UniProt Q690N0); test: DRUGMATRIX: Progesterone radioligand binding (ligand: [3H] R-5020); type: tissue-based, Uterus; settings: Not Active = under 50% inhibition at 10 µM
T2 sequence (Q690N0 whole entry): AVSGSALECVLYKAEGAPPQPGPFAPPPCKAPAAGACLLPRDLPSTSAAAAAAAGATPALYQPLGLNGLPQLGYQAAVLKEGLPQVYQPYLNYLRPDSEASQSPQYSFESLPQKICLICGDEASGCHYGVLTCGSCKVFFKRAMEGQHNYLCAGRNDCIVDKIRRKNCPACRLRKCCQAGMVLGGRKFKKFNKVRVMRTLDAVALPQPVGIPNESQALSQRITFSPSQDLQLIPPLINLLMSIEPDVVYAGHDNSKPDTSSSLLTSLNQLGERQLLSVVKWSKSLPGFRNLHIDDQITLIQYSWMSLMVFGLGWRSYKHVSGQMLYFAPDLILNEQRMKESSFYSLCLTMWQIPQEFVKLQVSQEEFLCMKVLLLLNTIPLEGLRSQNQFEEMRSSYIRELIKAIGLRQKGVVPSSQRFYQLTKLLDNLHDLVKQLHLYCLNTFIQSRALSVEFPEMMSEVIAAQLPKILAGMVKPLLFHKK

[2] = DRUGMATRIX: beta-Lactamase enzyme inhibition (substrate: Nitrocefin); parameters: species or system Bacillus cereus; settings: Not Active = under 50% inhibition at 10 µM
Cannabinoid receptor 1 = Cannabinoid receptor 1 (Homo sapiens, UniProt P21554); type: cell membranes, Membrane; settings: chem-1; note: in other assays of this panel Not Active means under 50% inhibition at 10 µM
[3] = biological target: T3, Neuropeptide Y receptor type 1 (Homo sapiens, UniProt P25929); type: cell membranes, Membrane; settings: sk-n-mc; note: in other assays of this panel Not Active means under 50% inhibition at 10 µM
T3 sequence (P25929 whole entry): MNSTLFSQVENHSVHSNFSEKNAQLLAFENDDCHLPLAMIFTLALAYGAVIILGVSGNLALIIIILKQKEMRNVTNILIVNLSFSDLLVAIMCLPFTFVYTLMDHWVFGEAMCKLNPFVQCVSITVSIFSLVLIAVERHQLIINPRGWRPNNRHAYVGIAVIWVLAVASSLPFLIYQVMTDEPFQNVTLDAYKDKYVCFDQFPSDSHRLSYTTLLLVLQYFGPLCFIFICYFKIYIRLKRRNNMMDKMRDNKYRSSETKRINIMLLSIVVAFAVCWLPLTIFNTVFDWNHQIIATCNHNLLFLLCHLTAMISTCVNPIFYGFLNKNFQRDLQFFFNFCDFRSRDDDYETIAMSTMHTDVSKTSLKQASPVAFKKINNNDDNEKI

[4] = biological target: T4, 5-hydroxytryptamine receptor 2C (Homo sapiens, UniProt P28335); test: DRUGMATRIX: Serotonin (5-Hydroxytryptamine) 5-HT2C radioligand binding (ligand: [3H] Mesulergine); type: cell membranes, CHO-K1, Membrane; settings: cho-k1; Not Active = under 50% inhibition at 10 µM
T4 sequence (P28335 whole entry): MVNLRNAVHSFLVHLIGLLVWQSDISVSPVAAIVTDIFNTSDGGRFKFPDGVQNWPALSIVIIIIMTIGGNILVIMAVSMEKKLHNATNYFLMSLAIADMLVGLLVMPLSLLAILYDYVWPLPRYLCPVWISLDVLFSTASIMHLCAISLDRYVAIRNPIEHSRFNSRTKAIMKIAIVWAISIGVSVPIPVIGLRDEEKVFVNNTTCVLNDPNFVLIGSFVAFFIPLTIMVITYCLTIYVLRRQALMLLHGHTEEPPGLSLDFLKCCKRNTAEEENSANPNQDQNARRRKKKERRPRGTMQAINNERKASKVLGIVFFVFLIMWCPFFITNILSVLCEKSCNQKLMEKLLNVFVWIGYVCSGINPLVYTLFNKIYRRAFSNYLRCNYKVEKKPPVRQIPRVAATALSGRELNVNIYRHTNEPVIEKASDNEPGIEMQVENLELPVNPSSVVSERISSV

Sequence of Cannabinoid receptor 1 (P21554 whole entry): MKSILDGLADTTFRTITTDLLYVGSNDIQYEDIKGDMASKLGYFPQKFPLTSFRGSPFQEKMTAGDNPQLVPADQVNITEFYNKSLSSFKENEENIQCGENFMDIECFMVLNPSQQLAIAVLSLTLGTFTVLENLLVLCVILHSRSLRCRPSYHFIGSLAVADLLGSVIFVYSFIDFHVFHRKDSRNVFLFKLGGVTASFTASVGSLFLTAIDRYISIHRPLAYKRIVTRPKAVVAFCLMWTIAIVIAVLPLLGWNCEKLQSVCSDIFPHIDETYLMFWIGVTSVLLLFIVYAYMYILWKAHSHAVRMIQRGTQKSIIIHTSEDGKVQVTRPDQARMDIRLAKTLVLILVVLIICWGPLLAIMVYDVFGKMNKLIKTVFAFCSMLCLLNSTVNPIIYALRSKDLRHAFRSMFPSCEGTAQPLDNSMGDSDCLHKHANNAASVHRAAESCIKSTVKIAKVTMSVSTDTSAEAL
Sequence of C-C chemokine receptor type 2 (P41597 whole entry): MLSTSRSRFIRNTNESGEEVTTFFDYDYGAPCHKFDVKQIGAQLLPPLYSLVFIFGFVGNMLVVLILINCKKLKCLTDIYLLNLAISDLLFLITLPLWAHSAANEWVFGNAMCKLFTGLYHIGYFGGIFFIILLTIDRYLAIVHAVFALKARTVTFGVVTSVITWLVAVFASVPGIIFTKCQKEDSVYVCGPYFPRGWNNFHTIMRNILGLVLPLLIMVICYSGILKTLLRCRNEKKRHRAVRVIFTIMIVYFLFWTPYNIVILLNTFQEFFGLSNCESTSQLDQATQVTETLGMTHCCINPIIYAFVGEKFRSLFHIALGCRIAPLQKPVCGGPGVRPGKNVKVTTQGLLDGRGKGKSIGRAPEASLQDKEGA

| Compound | IC50 (Caspase-1) | IC50 ([1]; cho-k1) | IC50 (Progesterone receptor) | IC50 [2] | Ki [2] | IC50 (Cannabinoid receptor 1) | IC50 [3] | IC50 [4] | IC50 ([1]; read-out: IC50) [µM] | Ki ([1]; read-out: Ki) [µM] | IC50 (Progesterone receptor; read-out: IC50) [µM] | Ki (Progesterone receptor; read-out: Ki) [µM] |
| --- | --- | --- | --- | --- | --- | --- | --- | --- | --- | --- | --- | --- |
| C[C@]12C/C(=C/O)C(=O)C[C@@H]1CC[C@@H]1[C@@H]2CC[C@@]2(C)[C@H]1CC[C@]2(C)O [OXYMETHOLONE] | Not Active | Not Active | Not Active | Not Active | Not Active | Not Active | Not Active | Not Active | – | – | – | – |
| C[C@@H]1CC[C@H]2[C@@H](C)C(=O)O[C@@H]3O[C@@]4(C)CC[C@@H]1[C@]32OO4 [ARTEMISININ] | Not Active | Not Active | Not Active | Not Active | Not Active | Not Active | Not Active | Not Active | – | – | – | – |
| CCOC(=O)[C@H](CCc1ccccc1)N[C@@H](C)C(=O)N1Cc2ccccc2C[C@H]1C(=O)O | Not Active | Not Active | Not Active | Not Active | Not Active | Not Active | Not Active | Not Active | – | – | – | – |
| C=C1/C(=C\C=C2/CCC[C@]3(C)[C@@H]([C@H](C)CCCC(C)C)CC[C@@H]23)C[C@@H](O)C[C@@H]1O [ALFACALCIDOL] | Not Active | Not Active | Not Active | Not Active | Not Active | Not Active | Not Active | Not Active | – | – | – | – |
| CCCCC1C(=O)N(c2ccccc2)N(c2ccccc2)C1=O [PHENYLBUTAZONE] | Not Active | Not Active | Not Active | Not Active | Not Active | Not Active | Not Active | Not Active | – | – | – | – |
| Cc1cn[nH]c1 [FOMEPIZOLE] | Not Active | Not Active | Not Active | Not Active | Not Active | Not Active | Not Active | Not Active | – | – | – | – |
| COc1ccccc1OCC(O)CO (stereo not drawn) [GUAIFENESIN] | Not Active | Not Active | Not Active | Not Active | Not Active | Not Active | Not Active | Not Active | – | – | – | – |
| [N-]=[N+]=CC(=O)OC[C@H](N)C(=O)O [AZASERINE] | Not Active | Not Active | Not Active | Not Active | Not Active | Not Active | Not Active | Not Active | – | – | – | – |
| N[C@@H](Cc1ccc(F)cc1)C(=O)O | Not Active | Not Active | Not Active | Not Active | Not Active | Not Active | Not Active | Not Active | – | – | – | – |
| O=C(/C=C/c1ccc(O)c(O)c1)OCCc1ccccc1 [CAFFEIC ACID PHENETHYL ESTER] | Not Active | Not Active | Not Active | Not Active | Not Active | Not Active | Not Active | Not Active | – | – | – | – |
| CCOC(=O)C1=C(C)NC(C)=C(C(=O)OC)C1c1cccc(Cl)c1Cl (stereo not drawn) [FELODIPINE] | Not Active | Not Active | Not Active | Not Active | Not Active | Not Active | Not Active | Not Active | – | – | – | – |
| OCCO [ETHYLENE GLYCOL] | Not Active | Not Active | Not Active | Not Active | Not Active | Not Active | Not Active | Not Active | – | – | – | – |
| CCC[C@@H]1C[C@@H](C(=O)N[C@@H]([C@H]2O[C@H](SC)[C@H](O)[C@@H](O)[C@H]2O)[C@H](C)Cl)N(C)C1 [CLINDAMYCIN] | Not Active | Not Active | Not Active | Not Active | Not Active | Not Active | Not Active | Not Active | – | – | – | – |
| C[C@H]([C@](O)(Cn1cncn1)c1ccc(F)cc1F)S(C)(=O)=O [GENACONAZOLE] | Not Active | Not Active | Not Active | Not Active | Not Active | Not Active | Not Active | Not Active | – | – | – | – |
| Nc1nc(N)nc(NC2CC2)n1 [CYROMAZINE] | Not Active | Not Active | Not Active | Not Active | Not Active | Not Active | Not Active | Not Active | – | – | – | – |
| CC[C@H](C)C(=O)O[C@H]1C[C@H](O)C=C2C=C[C@H](C)[C@H](CC[C@@H](O)C[C@@H](O)CC(=O)O)[C@H]21 [PRAVASTATIN] | Not Active | Not Active | Not Active | Not Active | Not Active | Not Active | Not Active | Not Active | – | – | – | – |
| OCCN1CCN(CCCN2c3ccccc3Sc3ccc(Cl)cc32)CC1 [PERPHENAZINE] | Not Active | Not Active | Not Active | Not Active | Not Active | Not Active | Not Active | Not Active | – | – | – | – |
| CC(C)(C)c1ccc(S(=O)(=O)/C=C/C#N)cc1 [BAY-11-7085] | Not Active | – | Not Active | Not Active | Not Active | Not Active | Not Active | Not Active | 4.18 | 1.61 | – | – |
| CCC(=O)O[C@H]1[C@H](O[C@@H]2[C@@H](C)[C@H](O[C@H]3C[C@@](C)(OC)[C@@H](O)[C@H](C)O3)[C@@H](C)C(=O)O[C@H](CC)[C@@](C)(O)[C@H](O)[C@@H](C)C(=O)[C@H](C)C[C@@]2(C)O)O[C@H](C)C[C@@H]1N(C)C [ERYTHROMYCIN PROPIONATE] | Not Active | Not Active | Not Active | Not Active | Not Active | Not Active | Not Active | Not Active | – | – | – | – |
| C#C[C@]1(O)CC[C@H]2[C@@H]3CCc4cc(O)ccc4[C@H]3CC[C@@]21C [ETHINYL ESTRADIOL] | Not Active | Not Active | – | Not Active | Not Active | Not Active | Not Active | Not Active | – | – | 1.07 | 0.139 |
| Nc1nc(Cl)nc2c1ncn2[C@H]1C[C@H](O)[C@@H](CO)O1 [CLADRIBINE] | Not Active | Not Active | Not Active | Not Active | Not Active | Not Active | Not Active | Not Active | – | – | – | – |
| CC(C)(Sc1cc(C(C)(C)C)c(O)c(C(C)(C)C)c1)Sc1cc(C(C)(C)C)c(O)c(C(C)(C)C)c1 [PROBUCOL] | Not Active | Not Active | Not Active | Not Active | Not Active | Not Active | Not Active | Not Active | – | – | – | – |
